Laboratory results taken from patent publication US11046954B2, “Targeted protein degradation to attenuate adoptive T-cell therapy associated adverse inflammatory responses” (Dana-Farber Cancer Institute, Inc., priority 2015, dated 2021).

Experiments:
CD19-CAR-dTAG = target: T1, CD19-CAR-dTAG (Homo sapiens, UniProt P62942+Q96SW2, F37V/H95N/M50V/V99I); assay: Immunoblot of Jurkat T-cells expressing CD19-CAR-dTAG; type: cell-based; conditions: for degradation of CD19-CAR-dTAG, time dependence: 250 nM, indicated time; for degradation of CD19-CAR-dTAG, dose dependence: indicated dose, 4 hours
T1 construct: HA; expressed in transfected cells; host or cells: Jurkat T-cells (lentiviral transduction, blasticidin selection)
T1 sequence (P62942 with tags, fused parts or gaps F37V/M50V/H95N/V99I limits assumed): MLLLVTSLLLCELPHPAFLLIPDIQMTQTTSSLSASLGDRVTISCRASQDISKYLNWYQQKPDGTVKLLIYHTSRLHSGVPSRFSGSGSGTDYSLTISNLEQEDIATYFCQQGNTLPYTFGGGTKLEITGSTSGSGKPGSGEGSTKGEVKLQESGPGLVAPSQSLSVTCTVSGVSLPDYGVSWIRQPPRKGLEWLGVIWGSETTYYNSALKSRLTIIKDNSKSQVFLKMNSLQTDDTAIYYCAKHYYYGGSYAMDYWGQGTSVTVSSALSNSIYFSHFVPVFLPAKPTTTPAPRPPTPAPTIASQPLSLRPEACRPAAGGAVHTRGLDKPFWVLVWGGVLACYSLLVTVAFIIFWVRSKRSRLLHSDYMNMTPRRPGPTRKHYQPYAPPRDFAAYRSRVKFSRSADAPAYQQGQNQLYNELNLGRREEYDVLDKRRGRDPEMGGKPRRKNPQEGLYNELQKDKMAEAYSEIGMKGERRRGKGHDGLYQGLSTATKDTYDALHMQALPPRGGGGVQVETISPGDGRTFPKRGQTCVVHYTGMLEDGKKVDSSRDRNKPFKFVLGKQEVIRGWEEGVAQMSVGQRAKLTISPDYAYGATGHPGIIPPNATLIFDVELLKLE
T1 sequence (Q96SW2 whole entry): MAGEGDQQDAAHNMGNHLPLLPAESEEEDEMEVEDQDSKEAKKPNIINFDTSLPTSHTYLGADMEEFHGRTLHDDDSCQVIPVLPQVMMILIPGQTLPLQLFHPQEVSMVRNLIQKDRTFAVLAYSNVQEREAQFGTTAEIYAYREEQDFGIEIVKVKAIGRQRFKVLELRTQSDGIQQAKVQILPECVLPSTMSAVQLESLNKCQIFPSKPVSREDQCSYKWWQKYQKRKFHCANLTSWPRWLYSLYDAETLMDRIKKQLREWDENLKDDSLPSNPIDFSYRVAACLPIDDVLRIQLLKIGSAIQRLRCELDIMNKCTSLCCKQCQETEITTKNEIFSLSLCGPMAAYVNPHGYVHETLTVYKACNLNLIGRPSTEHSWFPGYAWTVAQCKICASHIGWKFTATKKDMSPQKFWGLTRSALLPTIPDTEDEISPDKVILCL
T1 sequence (Q16531 whole entry partner): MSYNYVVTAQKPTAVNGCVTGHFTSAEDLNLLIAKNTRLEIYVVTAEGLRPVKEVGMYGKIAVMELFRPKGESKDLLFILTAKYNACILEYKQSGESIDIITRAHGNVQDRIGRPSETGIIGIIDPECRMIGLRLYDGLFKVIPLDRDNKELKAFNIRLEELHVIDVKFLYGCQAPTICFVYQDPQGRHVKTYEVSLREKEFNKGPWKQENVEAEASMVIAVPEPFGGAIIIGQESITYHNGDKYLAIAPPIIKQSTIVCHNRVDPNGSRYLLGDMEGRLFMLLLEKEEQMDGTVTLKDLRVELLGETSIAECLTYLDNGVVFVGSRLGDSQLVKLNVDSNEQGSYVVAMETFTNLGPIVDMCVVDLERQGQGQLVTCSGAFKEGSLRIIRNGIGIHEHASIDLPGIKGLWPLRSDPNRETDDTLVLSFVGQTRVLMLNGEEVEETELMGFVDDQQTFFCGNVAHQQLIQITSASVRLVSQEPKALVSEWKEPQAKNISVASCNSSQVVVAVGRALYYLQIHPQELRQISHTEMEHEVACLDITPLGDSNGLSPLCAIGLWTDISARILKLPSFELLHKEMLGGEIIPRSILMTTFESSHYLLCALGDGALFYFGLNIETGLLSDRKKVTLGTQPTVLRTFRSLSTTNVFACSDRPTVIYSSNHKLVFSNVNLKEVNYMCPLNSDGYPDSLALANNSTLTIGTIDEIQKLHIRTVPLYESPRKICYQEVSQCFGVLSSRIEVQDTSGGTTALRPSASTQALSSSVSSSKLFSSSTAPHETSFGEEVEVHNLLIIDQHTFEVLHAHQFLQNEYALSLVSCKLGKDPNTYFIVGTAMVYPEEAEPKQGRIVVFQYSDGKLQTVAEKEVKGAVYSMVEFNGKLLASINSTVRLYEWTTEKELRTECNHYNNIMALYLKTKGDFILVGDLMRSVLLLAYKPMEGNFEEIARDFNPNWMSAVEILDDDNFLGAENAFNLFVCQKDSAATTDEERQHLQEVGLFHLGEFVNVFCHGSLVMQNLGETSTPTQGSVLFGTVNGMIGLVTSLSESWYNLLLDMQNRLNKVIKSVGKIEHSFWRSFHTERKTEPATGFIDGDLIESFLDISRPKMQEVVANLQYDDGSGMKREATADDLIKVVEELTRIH
Description: Jurkat T-cells were transduced with lentivirus expressing CD19-CAR-dTAG. Cells were selected with blasticidin and expanded. Stable expression of CD19-CAR-dTAG was confirmed.
Jurkat T-cells expressing CD19-CAR-dTAG were treated with the indicated dose of dFKBP7 or dFKBP13 for 4 hours.
FIG. 15A and FIG. 15B are immunoblots of cells treated with bi-functional molecules described in the present invention. Jurkat T-cells expressing CD19-CAR-dTAG were treated with 250 nM of dFKBP7 or dFKBP13 for the indicated time.
Jurkat T-cells expressing CD19-CAR-dTAG were treated with 250 nM of dFKBP7 for 4 hours. The dFKBP7 was then removed from the Jurkat cells via washouts and the re-expression of CD19-CAR-dTAG was monitored by immunoblot analysis at the indicated time points.
(§1) FIG. 17A illustrates the experimental design to measure the ability to control the expression CD19-CAR-dTAG in T-cells upon addition and removal of dFKBP7. Jurkat cells expressing CD19-CAR-dTAG were treated with 250 nM of dFKBP7 at the indicated time points (0 and 8 hours). At 4 and 12 hours, the dFKBP7 was washed out of the Jurkat cells. At each indicated timepoint, Jurkat cells were harvest to monitor CD19-CAR-dTAG expression levels via immunoblot analysis. FIG. 17B is the resulting immunoblot from the experimental design in FIG. 17A.
Jurkat T-cells were transduced with lentivirus expressing CD19-CAR-dTAG. Cells were selected with blasticidin and expanded. Stable expression of CD19-CAR-dTAG in Jurkat cells was confirmed by anti-HA western immunoblotting of whole cell lysates.
In an effort to define the optimal concentration of bifunctional molecules to induce degradation of CD19-CAR-dTAG, degradation was measured upon treatment with increasing concentrations of dFKBP7 and dFKBP13. Jurkat T-cells were engineered to express CD19-CAR-dTAG. Cells were treated with the indicated dose of dFKBP7 or dFKBP13 for 4 hours before lysates were prepared for western immunoblot analysis.
To evaluate the kinetic control of targeted degradation of CD19-CAR-dTAG, a fixed concentration of bi-functional molecules dFKBP7 and dFKBP13 were administered at a fixed concentration for increased duration. Jurkat T-cells were engineered to express CD19-CAR-dTAG. Cells were treated with 250 nM dFKBP7 or dFKBP13 for the indicated time before lysates were prepared for immunoblot analysis.
Immunoblot illustrating the kinetics of re-expression of the CD19-CAR-dTAG protein following targeting degradation with dFKBP7. Jurkat T-cells engineered to express CD19-CAR-dTAG were treated with 250 nM of dFKBP7 for 4 hours. The dFKBP7 was then removed from the Jurkat cells via washouts and the re-expression of CD19-CAR-dTAG was monitored by immunoblot analysis at the indicated time points.
as §1, with “engineered to express” for “expressing”, “analysis.” for “analysis. FIG. 17B is the resulting immunoblot from the experimental design in FIG. 17A.”
FIG. 17B is an immunoblot illustrating the ability to toggle on and off expression of CD19-CAR-dTAG as described in FIG. 17A.

FKBP12WT = target: T2, FKBP12WT (Homo sapiens, UniProt P62942); assay: Immunoblot of 293FT cells (CRBN-WT or CRBN−/−) expressing FKBP12WT; type: cell-based; conditions: for degradation of FKBP12WT or endogenous FKBP12: isogenic 293FT CRBN-WT or CRBN−/−, 100 nM, 4 hours
T2 construct: HA; expressed in transfected cells; host or cells: 293FT cells (CRBN-WT or CRBN-/-)
T2 sequence (P62942 whole entry): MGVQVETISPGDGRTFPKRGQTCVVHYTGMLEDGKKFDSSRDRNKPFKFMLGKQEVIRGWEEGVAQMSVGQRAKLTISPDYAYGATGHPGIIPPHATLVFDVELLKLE
Description: FIG. 6 is an immunoblot of cells treated with bi-functional molecules described in the present invention. 293FT cells (CRBN-WT or CRBN−/−) expressing either HA-tagged FKBP12WT or FKBP* (also referred to as dFKBP12* herein) were treated with indicated concentrations of dFKBP7 for 4 hours.
Isogenic 293FT cells (CRBN-WT or CRBN−/−) expressing either FKBP12WT or FKBP* were treated with 100 nM of either dFKBP7 or dFKBP13 for 4 hours.
The dTAG is predicated on the selectivity of FKBP* specific ligands over endogenous, wild type FKBP. […] An immunoblot of cells treated with bi-functional molecules described in the present invention was performed. 293FT cells (CRBN-WT or CRBN−/−) expressing either HA-tagged FKBP12WT or FKBP* were treated with indicated concentrations of dFKBP7 for 4 hours.
Isogenic 293FT cells (CRBN-WT or CRBN−/−) were engineered to express either FKBP12WT or FKBP*. Cells were treated with 100 nM of either dFKBP7 or dFKBP13 for 4 hours before lysates were prepared for western immunoblot analysis.

SMILES	re-expression of CD19-CAR-dTAG after washout (CD19-CAR-dTAG; Jurkat T-cells, 250 nM dFKBP7 4 hours, then removed via washouts)	degradation of CD19-CAR-dTAG, time dependence (CD19-CAR-dTAG; Jurkat T-cells)	degradation of CD19-CAR-dTAG, dose dependence (CD19-CAR-dTAG; Jurkat T-cells)	rheostat chemical control of CD19-CAR-dTAG expression (CD19-CAR-dTAG; Jurkat cells, 250 nM dFKBP7 at 0 and 8 hours, washed out at 4 and 12 hours)	degradation of HA-tagged FKBP12WT (FKBP12WT; 293FT CRBN-WT or CRBN−/−, indicated concentrations of dFKBP7, 4 hours)	degradation of FKBP12WT or endogenous FKBP12 (FKBP12WT)
CC[C@H](C(=O)N1CCCC[C@H]1C(=O)O[C@H](CCc1ccc(OC)c(OC)c1)c1cccc(OCC(=O)NCCCOCCOCCOCCCNC(=O)COc2cccc3c2C(=O)N(C2CCC(=O)NC2=O)C3=O)c1)c1cc(OC)c(OC)c(OC)c1 (stereo partly drawn) [dFKBP7]	protein levels recovered following removal	time-dependent degradation	dose-dependent degradation	allows for exquisite chemical control of CD19-CAR-dTAG protein levels allowing for modulation within hours	not FKBPWT	not FKBP12WT or endogenous FKBP12
CC[C@H](C(=O)N1CCCC[C@H]1C(=O)O[C@H](CCc1ccc(OC)c(OC)c1)c1cccc(OCC(=O)NCCCCCCOc2cccc3c2C(=O)N(C2CCC(=O)NC2=O)C3=O)c1)c1cc(OC)c(OC)c(OC)c1 (stereo partly drawn) [dFKBP13]		time-dependent degradation	dose-dependent degradation			not FKBP12WT or endogenous FKBP12
